Source: patent US20190183952A1, “METHODS FOR PREPARING ACTIVE EXTRACT AND APPLICATION THEREOF” (BEIJING BOXIN NATURE BIOTECH LTD., priority 2016, published 2019)

Legend:
[1] = system: androgen-sensitive human prostate cancer cell line, LNCaP; experiment: XTT cell proliferation assay, LNCaP; format: cell-based
Protocol: (§1) Cell Proliferation Assays (FIGS. 7, 8, 16, and 17):
(§2) Human androgen-sensitive prostate cancer cell line, LNCaP, and androgen-insensitive prostate cancer cell line, PC-3 were cultured in RPMI-1640 medium supplemented with 2 mM L-glutamine and 10% fetal bovine serum (FBS). For proliferation assays LNCaP and PC-3 cells were seeded at 15,000 cells/well density in 24-well plates with complete medium (with 10% FBS). Cells were let to attach for 20 h and then, the culture medium was exchanged for fresh serum-free medium containing the respective treatments (androgens and test compounds). Viable cells content in each well was determined 72 h afterwards.
(§3) Proliferation was determined by the XTT cell viability assay (Cell Proliferation Kit II (XTT), Sigma-Aldrich, St. Louis, Mo., USA). This is a colorimetric assay that analyzes the number of viable cells by the cleavage of tetrazolium salts added to the culture medium. The cleavage product of tetrazolium salt XTT, in contrast to MTT, is soluble in water. The tetrazolium salt XTT is cleaved to formazan by a complex cellular mechanism. This bioreduction occurs in viable cells only. […] After this incubation period, the amount of formazan dye formed was quantitated using a plate reader. The measured absorbance at 490 nm directly correlates to the number of viable cells.

[2] = system: androgen-independent human prostate cancer cell line, PC-3; experiment: XTT cell proliferation assay, PC-3; format: cell-based; conditions: lycopene 0.1 and 0.25 mg/ml
Protocol: as §1, §2, §3

[3] = system: prostatic specific antigen (PSA) production by LNCaP; experiment: Androgen-stimulated PSA production (ELISA) in LNCaP cells; format: cell-based, human; conditions: testosterone or dihydrotestosterone (40 nM), 24 h; lycopene 0.1 and 0.25 mg/ml
Protocol: Prostatic-Specific Antigen (PSA) Determinations (FIGS. 9 and 18):
For this purpose, LNCaP cells were seeded at 25,000 cells/well in 24-well plates and let to grow in complete medium (10% FBS) at 80% confluence, approximately, that is typically achieved after 48 h. The culture medium was then exchanged for fresh serum-free medium containing the respective treatments (androgens and/or NtB and/or lycopene). Conditioned media was collected 24 h afterwards and PSA concentrations were determined by using a colorimetric ELISA kit following manufacturer's instructions (Ray Biotech, Norcross, Ga., USA).

[4] = system: human prostate strips from patients with BPH/LUTS; experiment: Organ bath, norepinephrine-contracted human prostate strips
Protocol: (§4) Organ Bath Experiments with Human Prostate and Bladder Tissues (FIGS. 10, 12, 19, and 20):
(§5) Specimens of human prostate and bladder neck were obtained from patients undergoing suprapubic adenomectomy (Millin's approach) for benign prostatic hyperplasia (BPH). […]
(§6) Human prostate and bladder neck specimens were cleaned of fat and connective tissue and cut into strips for organ bath assays. […] Tissues were subsequently exposed to 125 mM K^+ (equimolar substitution of […] in KHS) and contractile response was measured to check functionality. The relaxant effect induced by increasing doses of the NtB extract or the vehicle (distilled water) was evaluated in human prostate and bladder neck strips precontracted with 3-10 μM norepinephrine (NE) (80% of K^+-induced contraction, approximately) (FIG. 10). Relaxations of human prostate and bladder neck induced by PDES inhibition were evaluated by adding increasing concentrations of tadalafil (1 nM to 100 μM) on strips precontracted with NE and previously treated with NtB (10 mg/ml) or vehicle (distilled water) (FIG. 12). […] Concentration-response (relaxation) curves to lycopene (0.025 to 0.5 mg/ml) were also determined after NE-induced contraction in human bladder neck (FIG. 20A).

[5] = system: human bladder neck strips from patients with BPH/LUTS; experiment: Organ bath, norepinephrine-contracted human bladder neck strips
Protocol: as §4, §5, §6

## CC(C)=CCC/C(C)=C/C=C/C(C)=C/C=C/C(C)=C/C=C/C=C(C)/C=C/C=C(C)/C=C/C=C(\C)CCC=C(C)C [lycopene]
[1]; lycopene 0.25 mg/ml, T or DHT 40 nM
  testosterone- or dihydrotestosterone-induced increase in proliferation of LNCaP cells: effectively reversed
[1]; lycopene 0.1 and 0.25 mg/ml
  proliferation of LNCaP cells in the absence of androgen stimulation: did not significantly influence proliferation
[2]
  proliferation of PC-3 cells in the absence of androgen stimulation: did not significantly influence proliferation
[2]; T or DHT 40 nM
  proliferation of PC-3 cells in the presence of T or DHT: failed to significantly reduce proliferation
[3]
  androgen-stimulated PSA production in LNCaP cells: prevented
[4]
  relaxation (reversion of NE-induced contraction) of human prostate strips: could have relaxant activity by itself
[5]
  relaxation (reversion of NE-induced contraction) of human bladder neck strips: could have relaxant activity by itself
